Measurements: the supplement of paper PMC10307832

Columns and labels:
Experiment in all cases: relative viability (nuclei count vs DMSO), 5 days (fraction); higher = more cells survive
[1] = compound: CC1=CC(=NN1)NC2=CC(=NC(=N2)/C=C/C3=CC=CC=C3)N4CCN(CC4)C + CC1(C)CCC(c2ccc(Cl)cc2)=C(CN2CCN(c3ccc(C(=O)NS(=O)(=O)c4ccc(N[C@H](CCN5CCOCC5)CSc5ccccc5)c(S(=O)(=O)C(F)(F)F)c4)cc3)CC2)C1 [Navitoclax] (partner 0.5 µM)
Procedure, shortened: (§1)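 Cells from lung cancer lines were seeded into 1536-well plates and, one day later, dosed by pin tool. Treatments were either a single drug or a fixed dose of an anchor drug with five library-drug doses (not always all listed) in √10 steps. After 5 days, nuclei were stained in a one-step fixation (final 0.05% Triton X-100, 1% formaldehyde, 1 ug/ml Hoechst) and counted on 4× images, and relative viability is the treated-to-vehicle nuclei ratio, as the median of duplicate plates.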

[2] = compound: CC1=CC(=NN1)NC2=CC(=NC(=N2)/C=C/C3=CC=CC=C3)N4CCN(CC4)C + COc1cc2c(Oc3ccc(NC(=O)C4(C(=O)Nc5ccc(F)cc5)CC4)cc3F)ccnc2cc1OCCCN1CCOCC1 [Foretinib] (partner 0.25 µM)
Procedure, shortened: as §1

[3] = compound: CC1=CC(=NN1)NC2=CC(=NC(=N2)/C=C/C3=CC=CC=C3)N4CCN(CC4)C + Nc1nc2[nH]cc(CCc3ccc(C(=O)N[C@@H](CCC(=O)O)C(=O)O)cc3)c2c(=O)[nH]1 [Pemetrexed] (partner 0.2 µM)
Procedure, shortened: as §1

[4] = compound: CC1=CC(=NN1)NC2=CC(=NC(=N2)/C=C/C3=CC=CC=C3)N4CCN(CC4)C + O=C(CCCCCCC(=O)Nc1ccccc1)NO [Vorinostat] (partner 1 µM)
Procedure, shortened: as §1

Row | Cell Line | relative viability ([1]; first compound 0.08 µM) | relative viability ([1]; first compound 0.253 µM) | relative viability ([1]; first compound 0.8 µM) | relative viability ([1]; first compound 2.53 µM) | relative viability ([1]; first compound 8 µM) | relative viability ([2]; first compound 0.08 µM) | relative viability ([2]; first compound 0.253 µM) | relative viability ([2]; first compound 0.8 µM) | relative viability ([2]; first compound 2.53 µM) | relative viability ([2]; first compound 8 µM) | relative viability ([3]; first compound 0.08 µM) | relative viability ([3]; first compound 0.253 µM) | relative viability ([3]; first compound 0.8 µM) | relative viability ([3]; first compound 2.53 µM) | relative viability ([3]; first compound 8 µM) | relative viability ([4]; first compound 0.08 µM) | relative viability ([4]; first compound 0.253 µM) | relative viability ([4]; first compound 0.8 µM) | relative viability ([4]; first compound 2.53 µM) | relative viability ([4]; first compound 8 µM)
1 | HCC-366 | 1.07 | 1.19 | 0.989 | 0.371 | 0.0097 | 0.942 | 1.04 | 0.472 | 0.0589 | 0.0265 | 0.171 | 0.189 | 0.187 | 0.0462 | 0.0222 | 0.38 | 0.505 | 0.136 | 0.0276 | 0.0214
2 | NCI-H1355 | 0.878 | 0.961 | 0.974 | 0.701 | 0.386 | 0.879 | 1.05 | 0.985 | 0.743 | 0.18 | 1.04 | 1.01 | 1.01 | 0.902 | 0.546 | 0.639 | 0.599 | 0.622 | 0.273 | 0.104
3 | NCI-H1650 | 1.28 | 1.43 | 0.902 | 0.358 | 0.107 | 1.07 | 1.4 | 1.33 | 0.153 | 0.133 | 0.37 | 0.373 | 0.379 | 0.268 | 0.146 | 0.523 | 0.733 | 0.553 | 0.14 | 0.0794
4 | SW 1573 | 0.98 | 1.06 | 0.772 | 0.227 | 0.0461 | 0.847 | 0.993 | 1.1 | 0.536 | 0.151 | 0.802 | 0.852 | 0.735 | 0.126 | 0.0679 | 0.703 | 0.751 | 0.572 | 0.156 | 0.102
5 | LU99A | 0.766 | 0.781 | 0.57 | 0.25 | 0.125 | 0.8 | 0.732 | 0.735 | 0.363 | 0.156 | 0.187 | 0.2 | 0.199 | 0.202 | 0.173 | 0.481 | 0.434 | 0.425 | 0.182 | 0.0957
6 | LCLC-97TM1 | 0.492 | 0.781 | 0.294 | 0.201 | 0.106 | 0.911 | 0.954 | 0.961 | 0.296 | 0.132 | 0.186 | 0.226 | 0.161 | 0.164 | 0.0709 | 0.625 | 0.787 | 0.74 | 0.19 | 0.0813
7 | LC-2-ad | 0.432 | 0.332 | 0.224 | 0.0861 | 0.0584 | 0.875 | 0.942 | 0.753 | 0.413 | 0.204 | 0.263 | 0.266 | 0.269 | 0.187 | 0.143 | 0.709 | 0.751 | 0.467 | 0.186 | 0.15
8 | NCI-H1395 | 1.32 | 1.27 | 1.59 | 0.676 | 0.308 | 1.11 | 1.11 | 0.93 | 0.663 | 0.347 | 0.875 | 0.814 | 0.714 | 0.357 | 0.233 | 0.702 | 0.669 | 0.675 | 0.375 | 0.236
